In patent US20250171426A1, “PYRIMIDINEDIONE-BASED COMPOUNDS AS AXL, C-MET, AND MER INHIBITORS AND METHODS OF USE THEREOF” (CMG Pharmaceutical Co., Ltd., priority 2022, published 2025):

What was measured:
Format in all cases: biochemical
Conditions in all cases: 10 μM ATP, 60 min, ADP-GLO luminescence
c-MET = c-MET (Homo sapiens, UniProt P08581); experiment: Enzymatic assay (ADP-Glo kinase reaction), c-MET
Outline: (§1)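 For both AXL and c-MET, reactions in tyrosine kinase buffer used 0.2 μg/μL poly(Glu4,Tyr1) and 10 μM ATP with serially diluted inhibitor, 60 min at room temperature. ADP formed was read by ADP-Glo luminescence after 40 min reagent incubation.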

MER = target: T1, MER (Homo sapiens, UniProt Q12866); experiment: Enzymatic assay (ADP-Glo kinase reaction), MER
T1 sequence (Q12866 21-999): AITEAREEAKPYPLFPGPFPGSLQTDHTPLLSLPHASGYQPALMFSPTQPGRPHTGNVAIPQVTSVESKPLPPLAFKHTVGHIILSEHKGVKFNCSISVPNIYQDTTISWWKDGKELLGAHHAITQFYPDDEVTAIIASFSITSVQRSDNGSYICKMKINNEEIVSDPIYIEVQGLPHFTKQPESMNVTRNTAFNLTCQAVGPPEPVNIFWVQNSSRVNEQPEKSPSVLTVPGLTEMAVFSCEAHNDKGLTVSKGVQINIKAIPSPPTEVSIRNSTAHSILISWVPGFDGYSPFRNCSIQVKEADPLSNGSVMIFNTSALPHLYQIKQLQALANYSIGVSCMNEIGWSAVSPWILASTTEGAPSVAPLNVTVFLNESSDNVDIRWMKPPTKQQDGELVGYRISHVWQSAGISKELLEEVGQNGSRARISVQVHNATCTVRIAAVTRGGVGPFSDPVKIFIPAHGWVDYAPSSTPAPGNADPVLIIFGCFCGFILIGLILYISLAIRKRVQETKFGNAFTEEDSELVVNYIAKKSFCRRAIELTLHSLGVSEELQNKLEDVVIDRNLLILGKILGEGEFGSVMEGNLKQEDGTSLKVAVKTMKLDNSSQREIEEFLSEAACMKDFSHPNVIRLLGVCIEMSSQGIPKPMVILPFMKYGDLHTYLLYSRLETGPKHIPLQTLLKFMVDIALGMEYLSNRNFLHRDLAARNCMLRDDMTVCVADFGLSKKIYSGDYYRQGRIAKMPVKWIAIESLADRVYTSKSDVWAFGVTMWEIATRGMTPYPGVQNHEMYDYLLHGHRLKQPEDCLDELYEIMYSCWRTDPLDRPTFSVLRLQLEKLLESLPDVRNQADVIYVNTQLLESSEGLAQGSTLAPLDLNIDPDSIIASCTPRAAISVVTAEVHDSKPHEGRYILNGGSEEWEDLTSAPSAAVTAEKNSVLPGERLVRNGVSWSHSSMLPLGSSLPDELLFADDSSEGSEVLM
Outline: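 ADP-Glo luminescence assay of MER in tyrosine kinase buffer with 0.2 μg/μL poly(Glu4,Tyr1) substrate and 10 μM ATP. Serially diluted inhibitor reacted 60 min at room temperature. IC50 taken from luminescence after ADP-Glo and detection steps.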

AXL = target: T2, AXL (Homo sapiens, UniProt P30530); experiment: Enzymatic assay (ADP-Glo kinase reaction), AXL
T2 sequence (P30530 26-894): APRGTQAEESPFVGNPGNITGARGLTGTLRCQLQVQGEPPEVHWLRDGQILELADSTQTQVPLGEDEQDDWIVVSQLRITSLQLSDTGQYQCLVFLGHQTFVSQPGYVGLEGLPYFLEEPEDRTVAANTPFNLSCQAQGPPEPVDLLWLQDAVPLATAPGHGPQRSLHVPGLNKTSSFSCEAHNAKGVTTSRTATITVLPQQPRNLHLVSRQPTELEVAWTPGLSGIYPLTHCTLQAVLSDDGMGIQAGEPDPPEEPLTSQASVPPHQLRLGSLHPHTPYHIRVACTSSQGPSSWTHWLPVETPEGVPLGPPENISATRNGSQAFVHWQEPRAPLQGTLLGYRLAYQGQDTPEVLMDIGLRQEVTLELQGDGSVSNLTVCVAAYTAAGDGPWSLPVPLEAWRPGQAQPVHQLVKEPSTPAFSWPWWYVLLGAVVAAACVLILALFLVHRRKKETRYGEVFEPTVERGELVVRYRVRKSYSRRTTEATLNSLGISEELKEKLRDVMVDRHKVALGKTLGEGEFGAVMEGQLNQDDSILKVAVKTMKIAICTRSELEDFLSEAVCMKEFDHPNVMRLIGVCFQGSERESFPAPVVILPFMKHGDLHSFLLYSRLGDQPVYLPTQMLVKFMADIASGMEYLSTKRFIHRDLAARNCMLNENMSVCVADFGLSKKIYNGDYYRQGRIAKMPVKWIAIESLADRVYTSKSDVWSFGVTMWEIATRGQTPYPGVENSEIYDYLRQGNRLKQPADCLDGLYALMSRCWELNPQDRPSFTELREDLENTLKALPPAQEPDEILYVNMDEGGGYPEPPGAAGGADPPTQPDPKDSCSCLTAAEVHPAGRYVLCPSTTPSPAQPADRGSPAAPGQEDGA
Outline: as §1

Sequence of c-MET (P08581 25-1390): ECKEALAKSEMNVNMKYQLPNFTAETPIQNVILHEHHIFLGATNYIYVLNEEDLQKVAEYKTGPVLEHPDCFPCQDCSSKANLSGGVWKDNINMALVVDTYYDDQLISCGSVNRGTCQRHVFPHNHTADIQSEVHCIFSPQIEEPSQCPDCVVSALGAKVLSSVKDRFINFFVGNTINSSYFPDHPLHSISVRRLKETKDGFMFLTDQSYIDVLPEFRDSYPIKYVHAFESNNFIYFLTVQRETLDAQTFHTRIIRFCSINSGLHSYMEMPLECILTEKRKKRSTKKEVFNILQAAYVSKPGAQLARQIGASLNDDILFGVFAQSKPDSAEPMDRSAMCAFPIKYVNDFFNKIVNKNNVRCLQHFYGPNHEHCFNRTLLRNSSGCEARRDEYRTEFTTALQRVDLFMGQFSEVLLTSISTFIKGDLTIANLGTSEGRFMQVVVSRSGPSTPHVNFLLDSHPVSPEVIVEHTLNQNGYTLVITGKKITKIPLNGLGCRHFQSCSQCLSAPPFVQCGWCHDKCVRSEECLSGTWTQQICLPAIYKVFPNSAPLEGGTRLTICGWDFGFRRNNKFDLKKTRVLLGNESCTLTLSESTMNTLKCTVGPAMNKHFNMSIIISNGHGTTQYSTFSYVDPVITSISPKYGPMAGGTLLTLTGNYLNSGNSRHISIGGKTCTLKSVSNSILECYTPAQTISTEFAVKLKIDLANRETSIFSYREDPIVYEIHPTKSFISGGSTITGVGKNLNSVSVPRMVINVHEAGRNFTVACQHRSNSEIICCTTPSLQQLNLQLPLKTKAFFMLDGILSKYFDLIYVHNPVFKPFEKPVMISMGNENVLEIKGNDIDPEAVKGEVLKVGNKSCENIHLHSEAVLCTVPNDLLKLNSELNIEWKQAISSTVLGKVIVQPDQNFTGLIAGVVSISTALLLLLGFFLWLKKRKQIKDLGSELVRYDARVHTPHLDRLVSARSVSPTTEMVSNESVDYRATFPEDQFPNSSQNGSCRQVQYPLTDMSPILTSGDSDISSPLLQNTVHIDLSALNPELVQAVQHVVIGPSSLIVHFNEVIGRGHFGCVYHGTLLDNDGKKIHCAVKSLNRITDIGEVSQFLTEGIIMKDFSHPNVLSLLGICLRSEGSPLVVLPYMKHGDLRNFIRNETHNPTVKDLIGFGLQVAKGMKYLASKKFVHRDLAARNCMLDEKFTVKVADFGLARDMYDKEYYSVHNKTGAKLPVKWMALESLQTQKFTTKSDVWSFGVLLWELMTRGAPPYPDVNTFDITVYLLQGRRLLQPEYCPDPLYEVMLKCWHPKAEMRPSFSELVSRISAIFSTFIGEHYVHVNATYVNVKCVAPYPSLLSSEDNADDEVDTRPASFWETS

IC50 (c-MET)	IC50 (MER)	IC50 (AXL)	SMILES
< 10 nM	< 10 nM	< 10 nM	Cc1nc(Cn2cc(C(=O)Nc3ccc(Oc4ccnc(N)c4C#CCC4CCN(C)CC4)c(F)c3)c(=O)n(-c3ccc(F)cc3)c2=O)cs1 [Example 43, N-(4-((2-amino-3-(3-(1-methylpiperidin-4-yl)prop-1-yn-1-yl)pyridin-4-yl)oxy)-3-fluorophenyl)-3-(4-fluorophenyl)-1-((2-methylthiazol-4-yl)methyl)-2,4-dioxo-1,2,3,4-tetrahydropyrimidine-5-carboxamide]
< 10 nM	< 10 nM	< 10 nM	Cc1nc(Cn2cc(C(=O)Nc3ccc(Oc4ccnc(N)c4C#CCC4CCNCC4)c(F)c3)c(=O)n(-c3ccc(F)cc3)c2=O)cs1 [Example 44, N-(4-((2-amino-3-(3-(piperidin-4-yl)prop-1-yn-1-yl)pyridin-4-yl)oxy)-3-fluorophenyl)-3-(4-fluorophenyl)-1-((2-methylthiazol-4-yl)methyl)-2,4-dioxo-1,2,3,4-tetrahydropyrimidine-5-carboxamide]
< 1000 nM	< 100 nM	< 100 nM	CN1CCC(CC#Cc2c(Oc3ccc(NC(=O)c4nn(C)c(=O)n(-c5ccc(F)cc5)c4=O)cc3F)ccnc2N)CC1 [Example 45, N-(4-((2-amino-3-(3-(1-methylpiperidin-4-yl)prop-1-yn-1-yl)pyridin-4-yl)oxy)-3-fluorophenyl)-4-(4-fluorophenyl)-2-methyl-3,5-dioxo-2,3,4,5-tetrahydro-1,2,4-triazine-6-carboxamide]
< 100 nM	< 100 nM	< 10 nM	Cn1nc(C(=O)Nc2ccc(Oc3ccnc(N)c3C#CCC3CCNCC3)c(F)c2)c(=O)n(-c2ccc(F)cc2)c1=O [Example 46, N-(4-((2-amino-3-(3-(piperidin-4-yl)prop-1-yn-1-yl)pyridin-4-yl)oxy)-3-fluorophenyl)-4-(4-fluorophenyl)-2-methyl-3,5-dioxo-2,3,4,5-tetrahydro-1,2,4-triazine-6-carboxamide]
< 1000 nM	< 100 nM	< 10 nM	Cn1nc(C(=O)Nc2ccc(Oc3ccnc(N)c3C#CC(C)(C)N3CCNCC3)c(F)c2)c(=O)n(-c2ccc(F)cc2)c1=O [Example 47, N-(4-(2-amino-3-(3-methyl-3-(piperazin-1-yl)but-1-ynyl)pyridin-4-yloxy)-3-fluorophenyl)-4-(4-fluorophenyl)-2-methyl-3,5-dioxo-2,3,4,5-tetrahydro-1,2,4-triazine-6-carboxamide]
< 100 nM	< 1000 nM	< 100 nM	Cn1nc(C(=O)Nc2ccc(Oc3ccnc(N)c3C#CC(C)(C)N3CCOCC3)c(F)c2)c(=O)n(-c2ccc(F)cc2)c1=O [Example 48, N-(4-(2-amino-3-(3-methyl-3-morpholinobut-1-ynyl)pyridin-4-yloxy)-3-fluorophenyl)-4-(4-fluorophenyl)-2-methyl-3,5-dioxo-2,3,4,5-tetrahydro-1,2,4-triazine-6-carboxamide]
< 1000 nM	< 100 nM	< 100 nM	Cn1nc(C(=O)Nc2ccc(Oc3ccnc(N)c3C#CCN3CCOCC3)c(F)c2)c(=O)n(-c2ccc(F)cc2)c1=O [Example 49, N-(4-(2-amino-3-(3-morpholinoprop-1-ynyl)pyridin-4-yloxy)-3-fluorophenyl)-4-(4-fluorophenyl)-2-methyl-3,5-dioxo-2,3,4,5-tetrahydro-1,2,4-triazine-6-carboxamide]
< 100 nM	< 100 nM	< 10 nM	CC(C)(C#Cc1c(Oc2ccc(NC(=O)c3c[nH]c(=O)n(-c4ccc(F)cc4)c3=O)cc2F)ccnc1N)N1CCOCC1 [Example 50, N-(4-(2-amino-3-(3-methyl-3-morpholinobut-1-ynyl)pyridin-4-yloxy)-3-fluorophenyl)-3-(4-fluorophenyl)-2,4-dioxo-1,2,3,4-tetrahydropyrimidine-5-carboxamide]
< 100 nM	< 100 nM	< 100 nM	Nc1nccc(Oc2ccc(NC(=O)c3c[nH]c(=O)n(-c4ccc(F)cc4)c3=O)cc2F)c1C#CCN1CCOCC1 [Example 51, N-(4-(2-amino-3-(3-morpholinoprop-1-ynyl)pyridin-4-yloxy)-3-fluorophenyl)-3-(4-fluorophenyl)-2,4-dioxo-1,2,3,4-tetrahydropyrimidine-5-carboxamide]
< 1000 nM	< 100 nM	< 100 nM	CC(C)(C#Cc1c(Oc2ccc(NC(=O)c3c[nH]c(=O)n(-c4ccc(F)cc4)c3=O)cc2F)ccnc1N)N1CCNCC1 [Example 52, N-(4-(2-amino-3-(3-methyl-3-(piperazin-1-yl)but-1-ynyl)pyridin-4-yloxy)-3-fluorophenyl)-3-(4-fluorophenyl)-2,4-dioxo-1,2,3,4-tetrahydropyrimidine-5-carboxamide]
< 100 nM	< 10 nM	< 10 nM	Nc1nccc(Oc2ccc(NC(=O)c3c[nH]c(=O)n(-c4ccc(F)cc4)c3=O)cc2F)c1C#CCC1CCNCC1 [Example 53, N-(4-(2-amino-3-(3-(piperidin-4-yl)prop-1-ynyl)pyridin-4-yloxy)-3-fluorophenyl)-3-(4-fluorophenyl)-2,4-dioxo-1,2,3,4-tetrahydropyrimidine-5-carboxamide]
< 10 nM	< 100 nM	< 10 nM	CN1CCC(CC#Cc2c(Oc3ccc(NC(=O)c4c[nH]c(=O)n(-c5ccc(F)cc5)c4=O)cc3F)ccnc2N)CC1 [Example 54, N-(4-(2-amino-3-(3-(1-methylpiperidin-4-yl)prop-1-ynyl)pyridin-4-yloxy)-3-fluorophenyl)-3-(4-fluorophenyl)-2,4-dioxo-1,2,3,4-tetrahydropyrimidine-5-carboxamide]
< 100 nM	< 100 nM	< 100 nM	CC(C)(C#Cc1c(Oc2ccc(NC(=O)c3cn(C4CCOCC4)c(=O)n(-c4ccc(F)cc4)c3=O)cc2F)ccnc1N)N1CCOCC1 [Example 55, N-(4-(2-amino-3-(3-methyl-3-morpholinobut-1-ynyl)pyridin-4-yloxy)-3-fluorophenyl)-3-(4-fluorophenyl)-2,4-dioxo-1-(tetrahydro-2H-pyran-4-yl)-1,2,3,4-tetrahydropyrimidine-5-carboxamide]
< 100 nM	< 100 nM	< 100 nM	Nc1nccc(Oc2ccc(NC(=O)c3cn(C4CCOCC4)c(=O)n(-c4ccc(F)cc4)c3=O)cc2F)c1C#CCN1CCOCC1 [Example 56, N-(4-(2-amino-3-(3-morpholinoprop-1-ynyl)pyridin-4-yloxy)-3-fluorophenyl)-3-(4-fluorophenyl)-2,4-dioxo-1-(tetrahydro-2H-pyran-4-yl)-1,2,3,4-tetrahydropyrimidine-5-carboxamide]
